Tests used:
wild type DXP synthase = wild type DXP synthase (Escherichia coli, UniProt P77488); test: Anaerobic limited trypsinolysis in the presence of MAP; parameters: species or system E. coli; conditions: preincubation with MAP 65 μM, 45 min, 6 °C; trypsin 4.5 ng/μL; up to 150 min
H49A DXP synthase = H49A DXP synthase (Escherichia coli, UniProt P77488, H49A); format: biochemical, E. coli
H299N DXP synthase = H299N DXP synthase (Escherichia coli, UniProt P77488, H299N); format: biochemical, E. coli
H49N DXP synthase = H49N DXP synthase (Escherichia coli, UniProt P77488, H49N); format: biochemical, E. coli; conditions: read-out: Km^app,pyruvate; anaerobic; pyruvate varied, D-GAP 500 μM; n = 3
H299A DXP synthase = H299A DXP synthase (Escherichia coli, UniProt P77488, H299A); format: biochemical, E. coli; conditions: H299A vs wild type
[1] = read-out: Km^app,pyruvate, anaerobic, pyruvate varied, D-GAP 500 μM, n = 3

| SMILES | effect of MAP on trypsinolysis profile (wild type DXP synthase) | decrease in kcat/Km^pyruvate compared to wild type DXP synthase (H49A DXP synthase; H49A vs wild type) [fold] | Km (H49A DXP synthase; [1]) [µM] | decrease in kcat/Km^pyruvate relative to wild type DXP synthase (H299N DXP synthase; H299N vs wild type) [fold] | Km (H299N DXP synthase; [1]) [µM] | Km (H49N DXP synthase) [µM] | decrease in kcat/Km^pyruvate relative to wild type DXP synthase (H299A DXP synthase) [fold] |
| --- | --- | --- | --- | --- | --- | --- | --- |
| COP(=O)(O)C(C)=O [MAP, methylacetylphosphonate] | K313 is protected from typsinolysis | – | – | – | – | – | – |
| CC(=O)C(=O)O [pyruvate] | – | 76 | 1070 | 185 | 1080 | 1610 | 846 |

— PMC6905430 (Biochemistry, 2019)
